Measurements as given in article PMC9098913, “In vitro reconstitution of Escherichia coli divisome activation” (Nature Communications, 2022).
Read-outs that look alike come from different tables or passages of the source.

How the values were obtained:
[1] = Single-molecule membrane residence time of FtsA; format: binding; design: Single Molecule Lifetime: unit not given here; details: for Single Molecule Lifetime, mean: mean of Exp. 1-3, n = 3, Fig. 3b; for mean residence time on the membrane: single-particle tracking, n = 3
Procedure: First, we studied the behaviour of single FtsA proteins on the membrane surface.
After 5 min of incubation, single molecule time lapses were acquired every 125, 250, 500, and 1000 and 2000 ms, with an exposure time of 50 ms. Subsequently, the bulk concentration of FtsA was increased to 0.2/0.4/0.8 µM and time lapses were repeated as described above.
Single molecules of FtsA or FtsZ were tracked using the TrackMate plugin from ImageJ[43]. To obtain the residence time of FtsZ and FtsA, we performed a residence time analysis as described before[40],[47]. Shortly, single molecules were imaged at different acquisition rates (0.1–2 s) and the lifetime of the molecules was extracted from each data set. To account for photobleaching effect, the obtained lifetimes were plotted against the acquisition rate. […] Furthermore, we extracted the diffusion coefficient of FtsA single molecules at increasing concentrations. For this, we filtered the obtained data, by considering only trajectories which are present on the membrane for more than 0.4 s. […] Subsequently, the diffusion coefficient of FtsA molecules was estimated by fitting an MSD curve to each individual trajectory.

FtsZ = details: for PCCdiff FtsA/FtsZ: 1.25 µM FtsZ, mean ± s.d.
Description: For this aim, we prepared differential time lapse movies[24], where we subtract the intensities of consecutive frames to selectively visualize the growing ends of filament bundles (Fig. 1d). We then calculated the Pearson correlation coefficient between the two channels of the differential movies (PCCdiff), which quantifies the covariation of the fluorescence signals for FtsA and FtsZ at the growing end of a filament bundle with a time resolution of the acquisition rate[4],[23],[24].
Additionally, the reaction chamber contained 4 mM ATP and 4 mM GTP, as well as a scavenging system to minimize photobleaching effects: 30 mM d-glucose, 0.050 mg ml^−1 Glucose Oxidase, 0.016 mg ml^−1 Catalase, 1 mM DTT and 1 mM Trolox. Prior addition of all components a corresponding buffer volume was removed from the chamber to obtain a total reaction volume of 100 µl. The dynamic protein pattern was monitored by time-lapse TIRF microscopy at one frame per 2 s and 50 ms exposure time.
Treadmilling dynamics, were quantified using an automated image analysis protocol previously developed by our group[24]. To visualize colocalization of the co-treadmilling FtsZ & FtsA filaments, we used dual-colour videos obtained at an acquisition rate of one frame per 2 s. The two channels were aligned using FIJI’s 3TP align plugin. Both channels were then subjected to the image subtraction protocol and colocalization was measured as described above.

[2] = Membrane binding of FtsA by QCM-D; details: for amount of membrane-bound protein saturated at / Kd: QCM-D; for Kd: Hill fit, 5th harmonic, DOPC:DOPG 67:33 mol%, pH 7.4, 150 mM KCl, 5 mM MgCl2, 2 mM ATP, 2 mM GTP, 25 °C, n = 2, upper estimate
Procedure: To quantify the intrinsic membrane-affinity of the two versions of FtsA, we used Quartz Crystal Microbalance with Dissipation (QCM-D) and measured the hydrated mass of adsorbed protein on a membrane surface.
QCM-D experiments were performed with the QSense Analyzer from Biolin Scientific, equipped with silica-coated sensor (QSX 303). The sensors were cleaned for 10 s in a Zepto plasma cleaner, mounted in the QCM-D chambers and the acquisition of the experiment was first performed in the reaction buffer (50 mM Tris-HCl [pH 7.4], 150 mM KCl and 5 mM MgCl2). The supported lipid membrane was formed by rupturing 0.5 mM small unilamellar vesicles (SUVs) in the presence of MgCl2. The lipids used were 1,2-dioleoyl-sn-glycero-3-phosphocholine (DOPC) and 1,2-dioleoyl-sn-glycero-3-phospho-(1′-rac-glycerol) (DOPG) at a ratio of 67:33 mol%. After bilayer formations, the reaction buffer supplemented with 2 mM ATP, 2 mM GTP and 1 mM DTT was injected and the signal was recorded until a stable equilibrium was reached. Subsequently, increasing concentrations of FtsA were injected in the QCM-D chamber and changes in frequency and dissipation were monitored in real-time. The flow rate used in all experiments was 25 µl min^−1, and the temperature was set to 25 °C. To estimate the membrane-binding affinity, we extracted the frequency changes of the 5th acoustic harmonic for different FtsA concentrations and fitted a Hill equation y=S+(E−S)⋅(x^n/k^n+x^n) , where S is the starting point, E the end point, n is the Hill coefficient and k the dissociation constant. The measured binding affinity is an upper estimate, because QCM-D accounts not only on the dry molecular mass, but also on the hydration shell of the molecular assembly.

[3] = 0.1µM FtsAs, replicate column 1
[4] = 0.1µM FtsAs, replicate column 2
[5] = 0.1µM FtsAs, replicate column 3
[6] = 0.2µM FtsAs, replicate column 1
[7] = 0.2µM FtsAs, replicate column 2
[8] = 0.2µM FtsAs, replicate column 3
[9] = 0.2µM FtsAs, replicate column 4
[10] = 0.2µM FtsAs, replicate column 5
[11] = 0.4 µM FtsA, p-value 1.82 × 10^−4
[12] = 0.4µM FtsAs, replicate column 1
[13] = 0.4µM FtsAs, replicate column 2
[14] = 0.4µM FtsAs, replicate column 3
[15] = 0.8µM FtsAs, replicate column 1
[16] = 0.8µM FtsAs, replicate column 2
[17] = 0.8µM FtsAs, replicate column 3
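Throughout, for PCC FtsA/FtsZ, mean of experiment (head 'Fig.1e PCC'; n and values fit Fig. 1f PCCdiff): pearson correlation of FtsA and FtsZ channels in dual-colour TIRF movies after subtracting consecutive frames to isolate growing filament ends, one frame per 2 s, ATP and GTP present.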
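Throughout, for PCCdiff FtsA/FtsZ: pearson correlation of FtsA and FtsZ channels in dual-colour TIRF movies after subtracting consecutive frames to isolate growing filament ends, one frame per 2 s, ATP and GTP present.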

## FtsA WT: wild-type E. coli actin-homologue FtsA, membrane anchor of FtsZ
[1]; 0.1 µM FtsA, Exp. 1
  Single Molecule Lifetime: 15.60
[1]; 0.1µM FtsA, Exp. 2
  Single Molecule Lifetime: 17.80
[1]; 0.1 µM FtsA, Exp. 3
  Single Molecule Lifetime: 24.80
[1]; 0.1 µM FtsA
  Single Molecule Lifetime, mean: 19.40
  mean residence time on the membrane: 19.4 ± 3.9 s
[1]; 0.2 µM FtsA, Exp. 1
  Single Molecule Lifetime: 13.20
[1]; 0.2µM FtsA, Exp. 2
  Single Molecule Lifetime: 21.50
[1]; 0.2 µM FtsA, Exp. 3
  Single Molecule Lifetime: 28.80
[1]; 0.2 µM FtsA
  Single Molecule Lifetime, mean: 21.17
[1]; 0.4 µM FtsA, Exp. 1
  Single Molecule Lifetime: 28.70
[1]; 0.4µM FtsA, Exp. 2
  Single Molecule Lifetime: 24.00
[1]; 0.4 µM FtsA, Exp. 3
  Single Molecule Lifetime: 26.30
[1]; 0.4 µM FtsA
  Single Molecule Lifetime, mean: 26.33
[1]; 0.8 µM FtsA, Exp. 1
  Single Molecule Lifetime: 37.60
[1]; 0.8µM FtsA, Exp. 2
  Single Molecule Lifetime: 32.60
[1]; 0.8 µM FtsA, Exp. 3
  Single Molecule Lifetime: 35.20
[1]; 0.8 µM FtsA
  Single Molecule Lifetime, mean: 35.13
  mean residence time on the membrane: 35.1 ± 2.0 s
FtsZ; [3]
  PCC FtsA/FtsZ, mean of experiment (head 'Fig.1e_PCC'; n and values fit Fig. 1f PCCdiff): 0.69
FtsZ; [4]
  PCC FtsA/FtsZ, mean of experiment (head 'Fig.1e_PCC'; n and values fit Fig. 1f PCCdiff): 0.76
FtsZ; [5]
  PCC FtsA/FtsZ, mean of experiment (head 'Fig.1e_PCC'; n and values fit Fig. 1f PCCdiff): 0.71
FtsZ; 0.1µM FtsAs, replicate column 4
  PCC FtsA/FtsZ, mean of experiment (head 'Fig.1e_PCC'; n and values fit Fig. 1f PCCdiff): 0.71
FtsZ; 0.1µM FtsAs, replicate column 5
  PCC FtsA/FtsZ, mean of experiment (head 'Fig.1e_PCC'; n and values fit Fig. 1f PCCdiff): 0.86
FtsZ; 0.1µM FtsAs, replicate column 6
  PCC FtsA/FtsZ, mean of experiment (head 'Fig.1e_PCC'; n and values fit Fig. 1f PCCdiff): 0.67
FtsZ; [6]
  PCC FtsA/FtsZ, mean of experiment (head 'Fig.1e_PCC'; n and values fit Fig. 1f PCCdiff): 0.62
FtsZ; [7]
  PCC FtsA/FtsZ, mean of experiment (head 'Fig.1e_PCC'; n and values fit Fig. 1f PCCdiff): 0.58
FtsZ; [8]
  PCC FtsA/FtsZ, mean of experiment (head 'Fig.1e_PCC'; n and values fit Fig. 1f PCCdiff): 0.67
FtsZ; [9]
  PCC FtsA/FtsZ, mean of experiment (head 'Fig.1e_PCC'; n and values fit Fig. 1f PCCdiff): 0.71
FtsZ; [10]
  PCC FtsA/FtsZ, mean of experiment (head 'Fig.1e_PCC'; n and values fit Fig. 1f PCCdiff): 0.74
FtsZ; 0.2µM FtsAs, replicate column 6
  PCC FtsA/FtsZ, mean of experiment (head 'Fig.1e_PCC'; n and values fit Fig. 1f PCCdiff): 0.57
FtsZ; [11]
  PCCdiff FtsA/FtsZ: 0.18 ± 0.04
FtsZ; [12]
  PCC FtsA/FtsZ, mean of experiment (head 'Fig.1e_PCC'; n and values fit Fig. 1f PCCdiff): 0.18
FtsZ; [13]
  PCC FtsA/FtsZ, mean of experiment (head 'Fig.1e_PCC'; n and values fit Fig. 1f PCCdiff): 0.12
FtsZ; [14]
  PCC FtsA/FtsZ, mean of experiment (head 'Fig.1e_PCC'; n and values fit Fig. 1f PCCdiff): 0.23
FtsZ; [15]
  PCC FtsA/FtsZ, mean of experiment (head 'Fig.1e_PCC'; n and values fit Fig. 1f PCCdiff): 0.10
FtsZ; [16]
  PCC FtsA/FtsZ, mean of experiment (head 'Fig.1e_PCC'; n and values fit Fig. 1f PCCdiff): 0.12
FtsZ; [17]
  PCC FtsA/FtsZ, mean of experiment (head 'Fig.1e_PCC'; n and values fit Fig. 1f PCCdiff): 0.05
[2]; 0.01 µM
  Mean of QCM-D experiments: 1.23
[2]; 0.05 µM
  Mean of QCM-D experiments: 3.38
[2]; 0.10 µM
  Mean of QCM-D experiments: 7.01
[2]
  amount of membrane-bound protein saturated at: 0.8 µM
  Kd: 210 ± 10 nM

B1: FtsA R286W (protein)
chain: MIKATDRKLVVGLEIGTAKVAALVGEVLPDGMVNIIGVGSCPSRGMDKGGVNDLESVVKCVQRAIDQAELMADCQISSVYLALSGKHISCQNEIGMVPISEEEVTQEDVENVVHTAKSVRVRDEHRVLHVIPQEYAIDYQEGIKNPVGLSGVRMQAKVHLITCHNDMAKNIVKAVERCGLKVDQLIFAGLASSYSVLTEDERELGVCVVDIGGGTMDIAVYTGGALRHTKVIPYAGNVVTSDIAYAFGTPPSDAEAIKVRHGCALGSIVGKDESVEVPSVGGRPPWSLQRQTLAEVIEPRYTELLNLVNEEILQLQEKLRQQGVKHHLAAGIVLTGGAAQIEGLAACAQRVFHTQVRIGAPLNITGLTDYAQEPYYSTAVGLLHYGKESHLNGEAEVEKRVTASVGSWIKRLNSWLRKEF
modifications: Cy3 or Cy5 at the N-terminus in the labelled form (labelled CLEPTGG peptide conjugated to the 5xGly tag by sortagging); unlabelled protein also used; left off: TwinStrep-SUMO, N-terminal, cleaved | 5x
[1]; 0.1 µM FtsA, Exp. 1
  Single Molecule Lifetime: 1.99
[1]; 0.1µM FtsA, Exp. 2
  Single Molecule Lifetime: 2.89
[1]; 0.1 µM FtsA, Exp. 3
  Single Molecule Lifetime: 3.02
[1]; 0.1 µM FtsA
  Single Molecule Lifetime, mean: 2.63
[1]; 0.2 µM FtsA, Exp. 1
  Single Molecule Lifetime: 3.32
[1]; 0.2µM FtsA, Exp. 2
  Single Molecule Lifetime: 7.68
[1]; 0.2 µM FtsA, Exp. 3
  Single Molecule Lifetime: 10.90
[1]; 0.2 µM FtsA
  Single Molecule Lifetime, mean: 7.30
[1]; 0.4 µM FtsA, Exp. 1
  Single Molecule Lifetime: 8.16
[1]; 0.4µM FtsA, Exp. 2
  Single Molecule Lifetime: 11.60
[1]; 0.4 µM FtsA, Exp. 3
  Single Molecule Lifetime: 5.33
[1]; 0.4 µM FtsA
  Single Molecule Lifetime, mean: 8.36
[1]; 0.8 µM FtsA, Exp. 1
  Single Molecule Lifetime: 15.60
[1]; 0.8µM FtsA, Exp. 2
  Single Molecule Lifetime: 10.90
[1]; 0.8 µM FtsA, Exp. 3
  Single Molecule Lifetime: 15.80
[1]; 0.8 µM FtsA
  Single Molecule Lifetime, mean: 14.10
FtsZ; [3]
  PCC FtsA/FtsZ, mean of experiment (head 'Fig.1e_PCC'; n and values fit Fig. 1f PCCdiff): 0.68
FtsZ; [4]
  PCC FtsA/FtsZ, mean of experiment (head 'Fig.1e_PCC'; n and values fit Fig. 1f PCCdiff): 0.67
FtsZ; [5]
  PCC FtsA/FtsZ, mean of experiment (head 'Fig.1e_PCC'; n and values fit Fig. 1f PCCdiff): 0.48
FtsZ; [6]
  PCC FtsA/FtsZ, mean of experiment (head 'Fig.1e_PCC'; n and values fit Fig. 1f PCCdiff): 0.74
FtsZ; [7]
  PCC FtsA/FtsZ, mean of experiment (head 'Fig.1e_PCC'; n and values fit Fig. 1f PCCdiff): 0.79
FtsZ; [8]
  PCC FtsA/FtsZ, mean of experiment (head 'Fig.1e_PCC'; n and values fit Fig. 1f PCCdiff): 0.75
FtsZ; [9]
  PCC FtsA/FtsZ, mean of experiment (head 'Fig.1e_PCC'; n and values fit Fig. 1f PCCdiff): 0.76
FtsZ; [10]
  PCC FtsA/FtsZ, mean of experiment (head 'Fig.1e_PCC'; n and values fit Fig. 1f PCCdiff): 0.68
FtsZ; [11]
  PCCdiff FtsA/FtsZ: 0.76 ± 0.04
FtsZ; [12]
  PCC FtsA/FtsZ, mean of experiment (head 'Fig.1e_PCC'; n and values fit Fig. 1f PCCdiff): 0.72
FtsZ; [13]
  PCC FtsA/FtsZ, mean of experiment (head 'Fig.1e_PCC'; n and values fit Fig. 1f PCCdiff): 0.78
FtsZ; [14]
  PCC FtsA/FtsZ, mean of experiment (head 'Fig.1e_PCC'; n and values fit Fig. 1f PCCdiff): 0.82
FtsZ; 0.4µM FtsAs, replicate column 4
  PCC FtsA/FtsZ, mean of experiment (head 'Fig.1e_PCC'; n and values fit Fig. 1f PCCdiff): 0.72
FtsZ; 0.8 µM FtsA R286W
  PCCdiff FtsA/FtsZ: 0.76 ± 0.05
FtsZ; [15]
  PCC FtsA/FtsZ, mean of experiment (head 'Fig.1e_PCC'; n and values fit Fig. 1f PCCdiff): 0.79
FtsZ; [16]
  PCC FtsA/FtsZ, mean of experiment (head 'Fig.1e_PCC'; n and values fit Fig. 1f PCCdiff): 0.82
FtsZ; [17]
  PCC FtsA/FtsZ, mean of experiment (head 'Fig.1e_PCC'; n and values fit Fig. 1f PCCdiff): 0.76
FtsZ; 0.8µM FtsAs, replicate column 4
  PCC FtsA/FtsZ, mean of experiment (head 'Fig.1e_PCC'; n and values fit Fig. 1f PCCdiff): 0.69
[2]; 0.01 µM
  Mean of QCM-D experiments: 0.81
[2]; 0.05 µM
  Mean of QCM-D experiments: 1.79
[2]; 0.10 µM
  Mean of QCM-D experiments: 3.36
[2]
  amount of membrane-bound protein saturated at: 0.8 µM
  Kd: 320 ± 50 nM
